In ChEMBL document CHEMBL1157939, “Bromophycolides C-I from the Fijian red alga Callophycus serratus” (J Nat Prod, 2006):
pIC50: −log10 of the molar value.

What was measured:
[1] = tested on: DU-4475; test: Antineoplastic activity against human DU4475 cells after 72 hrs by MTS reduction assay; assay type: functional, cell-based; details: DU-4475, 72 h
[2] = tested on: Candida albicans; test: Antifungal activity against amphotericin B-resistant Candida albicans after 12 to 15 hrs by alamar blue assay; assay type: functional, organism-based

Compound | pIC50 [1] | pIC50 [2]
C=C1CC[C@H](Br)[C@@]2(C)CC[C@@H](Br)[C@@](C)(O)CC[C@@H](Br)C(C)(C)OC(=O)c3ccc(O)c(c3)C[C@H]12 [BROMOPHYCOLIDE H] | 5.41 | –
C=C1CC[C@H](Br)[C@@]2(C)CC[C@@H](Br)[C@@](C)(O)CC[C@H](O)C(C)(C)OC(=O)c3ccc(O)c(c3)C[C@H]12 [BROMOPHYCOLIDE I] | – | 3.68
C=C1CC[C@H](Br)[C@@]2(C)CC[C@@H]3O[C@@]3(C)CC[C@@H](C(C)(C)O)OC(=O)c3ccc(O)c(c3)C[C@H]12 [BROMOPHYCOLIDE F] | – | 3.62
